“Also recorded” adds a separate entry of the source. Marks after values point to notes of the source that are not given here.
Legend:
Beagle dogs [1] = assay: 13-week repeat dose toxicity in Beagle dogs, combination with methotrexate: clinical biochemistry (ALAT, ASAT); assay type: in vivo; settings: for ALAT, change as compared to the control group 1 / ASAT, change as compared to the control group 1: 25 mg Formula (II)/kg/day and/or 10/2.5 mg MTX/kg/week, p.o.
Description: For laboratory examinations blood samples were taken from the vena cephalica or vena saphena magna from animals fasted overnight. Serum samples were collected into tubes for biochemical tests. Clinical biochemistry parameters from venous blood were determined at the times listed below:
Prior to study start: all animals of a pool of 52 dogs […]
At the end of the recovery period: all 8 recovery animals included in this study
Clinical biochemistry parameters (e.g. bile acids, alanine aminotransferase=ALAT, alkaline phosphatise=aP, aspartate aminotransferase=ASAT, gamma-glutamyl-transferase=Gamma-GT, glutamate dehydrogenase=GLDH, creatine kinase=CK) were measured using KONELAB 30i instrument (Thermo Fisher Scientific, 63303 Dreieich, Germany) as U/L (unit/liter) serum.

DBA1/J mice = assay: Liver histology in collagen induced arthritis mice; assay type: in vivo; settings: individual mouse; diseased mice; po, MTX 2.5 mg/kg, Formula (II) 50 mg/kg
Description: Dosing is started, PO (per oral) once daily for 14 days.

Beagle dogs [2] = test system: Beagle dogs
Description: The animals were randomly allocated to five test groups employing a pseudo-random body weight stratification procedure that yielded groups with approximately equal mean body weights. […] A special focus of the study was to study the influence of the combination treatment on liver toxicity.

[3] = Toxicokinetics of formula (II) and methotrexate after individual and concomitant administration to Beagle dogs; assay type: in vivo; settings: Beagle, dog, plasma, po, mean
[4] = female, 2.5 mg/kg, Group 3, methotrexate alone 2.5 mg/kg (reduced from 10), week 13, female Beagle dogs
[5] = female, 2.5 mg/kg, Group 4 (+10SC, in combination with 10 mg/kg formula (II)), methotrexate 2.5 mg/kg (reduced from 10), week 13, female Beagle dogs
[6] = female, 2.5 mg/kg, Group 5 (+25SC, in combination with 25 mg/kg formula (II)), methotrexate 2.5 mg/kg (reduced from 10), week 13, female Beagle dogs
[7] = female, 10 mg/kg, Group 3, methotrexate 10 mg/kg alone, day 1, female Beagle dogs
[8] = female, 10 mg/kg, Group 4 (+10SC, in combination with 10 mg/kg formula (II)), methotrexate 10 mg/kg, day 1, female Beagle dogs
[9] = female, 10 mg/kg, Group 5 (+25SC, in combination with 25 mg/kg formula (II)), methotrexate 10 mg/kg, day 1, female Beagle dogs
[10] = male, 2.5 mg/kg, Group 3, methotrexate alone 2.5 mg/kg (reduced from 10), week 13, male Beagle dogs
[11] = male, 2.5 mg/kg, Group 4 (+10SC, in combination with 10 mg/kg formula (II)), methotrexate 2.5 mg/kg (reduced from 10), week 13, male Beagle dogs
[12] = male, 2.5 mg/kg, Group 5 (+25SC, in combination with 25 mg/kg formula (II)), methotrexate 2.5 mg/kg (reduced from 10), week 13, male Beagle dogs
[13] = male, 10 mg/kg, Group 3, methotrexate 10 mg/kg alone, day 1, male Beagle dogs
[14] = male, 10 mg/kg, Group 4 (+10SC, in combination with 10 mg/kg formula (II)), methotrexate 10 mg/kg, day 1, male Beagle dogs
[15] = male, 10 mg/kg, Group 5 (+25SC, in combination with 25 mg/kg formula (II)), methotrexate 10 mg/kg, day 1, male Beagle dogs

CN(Cc1cnc2nc(N)nc(N)c2n1)c1ccc(C(=O)N[C@@H](CCC(=O)O)C(=O)O)cc1 [MTX, methotrexate, reference compound]
Changes in the biochemical parameters (Beagle dogs [1]; Beagle dogs, 13 weeks oral, serum): pronounced and statistically significant (at p≦0.01) changes in the biochemical parameters of ALAT, ASAT, CK, GLDH as well as bile acids | ALAT, change as compared to the control group 1 (Beagle dogs [1]; Test day 37, females): +190% | ASAT, change as compared to the control group 1 (Beagle dogs [1]; Test day 37, females): +47** % | ALAT, change as compared to the control group 1 (Beagle dogs [1]; Test day 37, males): none | ASAT, change as compared to the control group 1 (Beagle dogs [1]; Test day 37, males): none | ALAT, change as compared to the control group 1 (Beagle dogs [1]; Test day 93, females): +567% | ASAT, change as compared to the control group 1 (Beagle dogs [1]; Test day 93, females): +34** % | ALAT, change as compared to the control group 1 (Beagle dogs [1]; Test day 93, males): +386% | ASAT, change as compared to the control group 1 (Beagle dogs [1]; Test day 93, males): +55** % | Liver Histology, Observations (DBA1/J mice): Minimal glycogen depletion, hepatocyte; also recorded: Mild glycogen depletion, hepatocyte; also recorded: Normal; also recorded: Minimal multifocal subacute inflammation | Premature death (Beagle dogs [2]; Beagle dogs, 10 mg MTX/kg body weight/week, oral): found dead in the morning of test day 20 | Enteritis in the gastro-intestinal mucosa (Beagle dogs [2]; dog, in vivo, po): most pronounced | AUC(0-inf) [3, 4]: 2200 ng·h/mL | Cmax [3, 4]: 500 ng/mL | half-life [3, 4]: 2.3 h | AUC(0-inf) [3, 5]: 1900 ng·h/mL | Cmax [3, 5]: 400 ng/mL | half-life [3, 5]: 2.6 h | AUC(0-inf) [3, 6]: 1400 ng·h/mL | Cmax [3, 6]: 200 ng/mL | half-life [3, 6]: 2.7 h | AUC(0-inf) [3, 7]: 5300 ng·h/mL | Cmax [3, 7]: 1100 ng/mL | half-life [3, 7]: 2.4 h | AUC(0-inf) [3, 8]: 7500 ng·h/mL | Cmax [3, 8]: 1700 ng/mL | AUC(0-inf) [3, 9]: 5000 ng·h/mL | Cmax [3, 9]: 1200 ng/mL | half-life [3, 9]: 2 h | AUC(0-inf) [3, 10]: 3000 ng·h/mL | Cmax [3, 10]: 700 ng/mL | half-life [3, 10]: 2.6 h | AUC(0-inf) [3, 11]: 2000 ng·h/mL | Cmax [3, 11]: 400 ng/mL | half-life [3, 11]: 2 h | AUC(0-inf) [3, 12]: 2500 ng·h/mL | Cmax [3, 12]: 600 ng/mL | half-life [3, 12]: 2.1 h | AUC(0-inf) [3, 13]: 6400 ng·h/mL | Cmax [3, 13]: 1800 ng/mL | half-life [3, 13]: 1.6 h | AUC(0-inf) [3, 14]: 6600 ng·h/mL | Cmax [3, 14]: 1700 ng/mL | half-life [3, 14]: 1.6 h | AUC(0-inf) [3, 15]: 5900 ng·h/mL | Cmax [3, 15]: 1200 ng/mL | half-life [3, 15]: 2.2 h

— US20120028985A1, “COMBINATIONAL THERAPY FOR TREATING AUTOIMMUNE DISEASE” (4SC AG, priority 2008, published 2012)
